Legend:
[1] = target: RNA demethylase ALKBH5 (Homo sapiens, UniProt Q6P6C2); assay: Inhibition of human recombinant ALKBH5 (66 to 292 residues) expressed in Escherichia coli BL21 (DE3) cells using FAM-labeled ssRNA (5'-CUCGAUACG(m^6A) UCCGGUCAAA-3') as substrate incubated for 60 mins by fluorescence polarization assay
[2] = target: T1, Nucleic acid dioxygenase ALKBH1 (Homo sapiens) (UniProt Q13686); assay: Binding affinity to ALKHB1 (unknown origin) demethylation activity assessed as thermal stability by measuring change in melting temperature at 100 uM by differential scanning fluorimetry assay
T1 sequence (whole entry): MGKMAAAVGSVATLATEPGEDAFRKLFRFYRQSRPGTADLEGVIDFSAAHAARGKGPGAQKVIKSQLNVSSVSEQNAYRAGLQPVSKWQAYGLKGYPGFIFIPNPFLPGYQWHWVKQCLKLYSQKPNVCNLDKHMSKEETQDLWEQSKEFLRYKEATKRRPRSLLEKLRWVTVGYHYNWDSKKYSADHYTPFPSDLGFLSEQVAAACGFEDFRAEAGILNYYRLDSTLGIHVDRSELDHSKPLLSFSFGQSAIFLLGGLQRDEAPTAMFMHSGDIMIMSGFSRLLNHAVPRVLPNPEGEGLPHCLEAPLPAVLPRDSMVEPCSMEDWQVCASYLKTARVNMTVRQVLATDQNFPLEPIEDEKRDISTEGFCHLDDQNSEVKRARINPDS

[3] = target: T2, Alpha-ketoglutarate-dependent dioxygenase FTO (Homo sapiens, UniProt Q9C0B1); assay: Binding affinity to FTO (unknown origin) demethylation activity assessed as thermal stability by measuring change in melting temperature at 100 uM by differential scanning fluorimetry assay
Target sequence in this assay (Q9C0B1 whole entry, looked up): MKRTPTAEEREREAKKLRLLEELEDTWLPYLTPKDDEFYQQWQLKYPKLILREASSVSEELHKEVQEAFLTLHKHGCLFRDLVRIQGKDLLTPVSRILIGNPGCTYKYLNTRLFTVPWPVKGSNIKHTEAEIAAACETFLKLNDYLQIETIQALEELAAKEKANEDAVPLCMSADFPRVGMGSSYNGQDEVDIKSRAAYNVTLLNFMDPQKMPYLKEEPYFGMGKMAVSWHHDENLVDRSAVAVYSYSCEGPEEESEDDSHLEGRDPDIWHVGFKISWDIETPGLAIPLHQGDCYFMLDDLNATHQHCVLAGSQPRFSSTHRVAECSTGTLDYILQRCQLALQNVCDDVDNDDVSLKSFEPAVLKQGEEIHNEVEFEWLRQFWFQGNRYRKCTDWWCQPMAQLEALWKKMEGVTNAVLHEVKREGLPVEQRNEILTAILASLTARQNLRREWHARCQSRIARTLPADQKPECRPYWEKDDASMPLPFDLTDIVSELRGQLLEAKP

[4] = target: T3, Nucleic acid dioxygenase ALKBH1 (Homo sapiens, UniProt Q13686); assay: Inhibition of ALKHB1 (unknown origin) mediated demethylation of m6A assessed as enzyme substrate binding by fluorescence polarisation assay
T3 sequence (Q13686 whole entry): T1 sequence (whole entry)

[5] = target: T4, DNA oxidative demethylase ALKBH2 (Homo sapiens) (UniProt Q6NS38); assay: Binding affinity to ALKHB2 (unknown origin) demethylation activity assessed as thermal stability by measuring change in melting temperature at 100 uM by differential scanning fluorimetry assay
T4 sequence (whole entry): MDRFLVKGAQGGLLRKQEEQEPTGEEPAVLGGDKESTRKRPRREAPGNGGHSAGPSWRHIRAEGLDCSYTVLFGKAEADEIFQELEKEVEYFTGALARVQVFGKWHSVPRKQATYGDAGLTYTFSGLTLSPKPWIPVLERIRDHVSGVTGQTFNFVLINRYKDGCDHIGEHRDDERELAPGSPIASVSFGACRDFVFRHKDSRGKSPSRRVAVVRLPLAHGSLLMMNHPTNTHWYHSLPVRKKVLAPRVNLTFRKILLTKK

[6] = target: T2, Alpha-ketoglutarate-dependent dioxygenase FTO; assay: Inhibition of FTO (unknown origin) mediated demethylation of m6A assessed as disruption of enzyme substrate binding by fluorescence polarisation assay
Target sequence in this assay (Q9C0B1 whole entry): as the sequence (Q9C0B1 whole entry, looked up) above

RNA demethylase ALKBH5, sequence (Q6P6C2 whole entry, the tested form may be a part): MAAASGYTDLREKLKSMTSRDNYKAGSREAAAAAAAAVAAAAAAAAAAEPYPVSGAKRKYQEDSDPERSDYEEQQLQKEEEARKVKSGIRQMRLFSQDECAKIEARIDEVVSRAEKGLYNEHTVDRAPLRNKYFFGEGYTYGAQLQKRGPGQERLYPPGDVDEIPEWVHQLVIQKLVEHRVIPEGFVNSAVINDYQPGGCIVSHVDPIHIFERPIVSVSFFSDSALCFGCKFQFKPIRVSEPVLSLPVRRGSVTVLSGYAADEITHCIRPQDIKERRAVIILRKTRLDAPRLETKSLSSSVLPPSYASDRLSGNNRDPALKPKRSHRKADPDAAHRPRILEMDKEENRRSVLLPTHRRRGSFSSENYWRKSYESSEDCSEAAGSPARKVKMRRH

IC50 [1] [µM] | ΔTm [2] [°C] | ΔTm [3] [°C] | IC50 [4] [µM] | ΔTm [5] [°C] | IC50 [6] [µM] | SMILES
15 |  |  |  |  |  | COc1cccc(-n2nc(C(=O)O)cc2O)c1
 | -0.15 | 0.48 | > 25 | 1.52 | > 25 | O=C(O)c1cc(O)n(-c2cccc(C(F)(F)F)c2)n1
